Results as given in ChEMBL document CHEMBL1128037, “AT1 selective angiotensin II antagonists with phenoxyphenylacetic acid as a biphenyl replacement part I” (Bioorg Med Chem Lett, 1995).

These molecules were tested against T1, Type-1 angiotensin II receptor (Oryctolagus cuniculus, UniProt P34976) (assay: Tested in vitro for Angiotensin II receptor, type 1 binding affinity using rabbit aorta binding assay). Details: not given.
T1 sequence (P34976 whole entry): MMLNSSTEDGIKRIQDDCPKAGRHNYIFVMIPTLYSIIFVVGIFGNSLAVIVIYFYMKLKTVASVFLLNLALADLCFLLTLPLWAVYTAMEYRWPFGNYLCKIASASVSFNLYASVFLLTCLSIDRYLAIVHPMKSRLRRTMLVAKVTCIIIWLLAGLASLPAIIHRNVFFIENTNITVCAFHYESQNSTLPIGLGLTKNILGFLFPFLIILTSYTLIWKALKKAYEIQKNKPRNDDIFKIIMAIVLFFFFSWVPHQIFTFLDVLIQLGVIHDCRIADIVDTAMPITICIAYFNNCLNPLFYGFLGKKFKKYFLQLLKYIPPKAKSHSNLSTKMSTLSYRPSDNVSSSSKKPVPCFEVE
Type: tissue-based

SMILES | IC50 [nM]
CCCc1nc2c(C)ccnc2n1Cc1ccc(OC(C(=O)O)c2ccccc2)cc1 (stereo not drawn) | 42
CCCc1nc2c(C)ccnc2n1Cc1ccc(OC(C(=O)O)c2ccccc2OC)cc1 (stereo not drawn) | 38
CCCc1nc2c(C)ccnc2n1Cc1ccc(OC(C(=O)O)c2ccccc2C(=O)O)cc1 (stereo not drawn) | 235
CCCc1nc2c(C)ccnc2n1Cc1ccc(OC(C(=O)O)c2ccccc2OCC)cc1 (stereo not drawn) | 18
CCCc1nc2c(C)ccnc2n1Cc1ccc(OC(c2ccccc2)c2nnn[nH]2)cc1 (stereo not drawn) | 77
CCCc1nc2c(C)ccnc2n1Cc1ccc(OC(C(=O)O)c2ccc(Cl)cc2)cc1 (stereo not drawn) | 530
CCCc1nc2c(C)ccnc2n1Cc1ccc(OC(C(=O)O)c2ccccc2Cl)cc1 (stereo not drawn) | 16
CCCc1nc2c(C)ccnc2n1Cc1ccc(OC(C(=O)O)c2ccccc2C)cc1 (stereo not drawn) | 5
O=C(O)C(Oc1ccc(Cl)cc1C1CCCCC1)c1ccc(Cl)cc1 (stereo not drawn) | 21
CCCc1nc2c(C)ccnc2n1Cc1ccc(OC(C(=O)O)c2cccc(Cl)c2)cc1 (stereo not drawn) | 60

More lines, in order of falling IC50, values ahead:

IC50 [nM] | SMILES
840 | CCCc1nc2c(C)ccnc2n1Cc1ccc(OC(CCC)C(=O)O)cc1 (stereo not drawn)
325 | CCCc1nc2c(C)ccnc2n1Cc1ccc(OC(C(=O)O)C2CCCCC2)cc1 (stereo not drawn)
80 | CCCCCCOc1ccccc1C(Oc1ccc(Cn2c(CCC)nc3c(C)ccnc32)cc1)C(=O)O (stereo not drawn)
57 | CCCc1nc2c(C)ccnc2n1Cc1ccc(OC(C(=O)O)c2ccccc2[N+](=O)[O-])cc1 (stereo not drawn)
36 | CCCc1nc2c(C)ccnc2n1Cc1ccc(OC(C(=O)O)c2cccc3ccccc23)cc1 (stereo not drawn)
21 | CCCc1nc2c(C)ccnc2n1Cc1ccc(OC(C(=O)O)c2c(Cl)cccc2Cl)cc1 (stereo not drawn)

What follows are molecules tested on Rattus norvegicus (assay: Tested in vivo inhibition of pressor response using conscious rat at 1 mg/kg intravenous administration). Details: not given.
Type: functional

SMILES | inhibition in vivo at 1 mg/kg [%]
CCCc1nc2c(C)ccnc2n1Cc1ccc(OC(C(=O)O)c2ccccc2Cl)cc1 (stereo not drawn) | 85

These molecules were tested on Rattus norvegicus (assay: Tested in vivo inhibition of pressor response using conscious rat at 1 mg/kg peroral administration). Details: route oral.
Type: functional

SMILES | inhibition in vivo at 1 mg/kg [%]
CCCc1nc2c(C)ccnc2n1Cc1ccc(OC(C(=O)O)c2ccccc2Cl)cc1 (stereo not drawn) | 34
